Experiments:
Glut1 = molecular target: T1, Glut1 (Homo sapiens, UniProt P11166); assay: Bidirectional transport assay in the human in vitro BBB model, Glut1 substrate; format: in vitro ADME; details: 2-NBDG 100 μg/ml
T1 construct: endogenous in cells; host or cells: HBMEC/ci18 co-cultured with HBPC/ci37 and HASTR/ci35 (transwell)
T1 sequence (P11166 1-492): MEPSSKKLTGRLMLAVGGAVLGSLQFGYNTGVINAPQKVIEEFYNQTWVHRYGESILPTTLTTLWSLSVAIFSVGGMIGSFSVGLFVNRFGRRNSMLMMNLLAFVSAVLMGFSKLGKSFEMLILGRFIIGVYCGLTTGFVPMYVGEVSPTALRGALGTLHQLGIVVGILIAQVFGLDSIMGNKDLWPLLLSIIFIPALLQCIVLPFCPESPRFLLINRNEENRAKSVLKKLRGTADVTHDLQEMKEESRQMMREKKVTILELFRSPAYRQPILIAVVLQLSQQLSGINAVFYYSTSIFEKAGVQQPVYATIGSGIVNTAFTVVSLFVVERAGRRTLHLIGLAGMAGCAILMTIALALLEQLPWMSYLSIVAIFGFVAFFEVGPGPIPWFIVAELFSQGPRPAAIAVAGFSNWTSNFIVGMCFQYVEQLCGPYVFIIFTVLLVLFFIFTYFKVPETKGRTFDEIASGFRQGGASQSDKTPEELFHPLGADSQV
Method: (§1) In vitro human BBB models were developed by combining three immortalized cell lines). Briefly, HBPC/ci37 cells were seeded on the bottom side of the collagen IV- and Fibronectin-coated polycarbonate membrane of a transwell insert (Millicell cell culture insert 24-well hanging inserts, 0.4 μm […]; Merck, Darmstadt, Germany) at a density of 1.0 × 10^4 cells/insert. The cells were then cultured for 1 day to allow them to attach firmly. HASTR/ci35 cells were seeded (5.0 × 10^4 cells/well) on collagen I-coated 24-well plates (Greiner Bio-one, Frickenhausen, Germany) and maintained in astrocyte culture medium. HBPC/ci37 cells were induced to differentiate by replacing the pericyte medium with pericyte differentiation medium, which was consisted of FBS- and blasticidin S-free pericyte medium; HASTR/ci35 cells were induced to differentiate by replacing the astrocyte culture medium with astrocyte differentiation medium, which was consisted of FBS- and blasticidin S-free astrocyte growth medium supplemented with 1 mM adenosine 3′,5′-cyclic monophosphate sodium salt monohydrate. After the differentiation media were added, both cell lines were cultured at 37 °C for 24 h. To start a coculture, HBMEC/ci18 cells were seeded on the inner side of the HBPC/ci37 cell culture insert at a density of 1.0 × 10^5 cells. […]

[1] = Permeability assay with permeable and nonpermeable compounds in the human in vitro BBB model; details: human
Method: as §1

[2] = system: human in vitro BBB model (HBMEC/ci18, HBPC/ci37, HASTR/ci35); assay: as above
Method: as §1

Compound: O=[N+]([O-])c1ccc(N[C@H]2C(O)O[C@H](CO)[C@@H](O)[C@@H]2O)c2nonc12 (stereo partly shown) [2-NBDG]
- Efflux Ratio Mean (Glut1; mean of 4 independent experiments): 1.1
- Efflux Ratio (Pe (B to A)/Pe (A to B)) (Glut1; single independent experiment): 1.01

Compound: Cn1c(=O)c2c(ncn2C)n(C)c1=O [caffeine]
- Papp at 5 μM [1]: 1160 ± 492 ×10⁻⁶ cm/s

Compound: Lucifer Yellow
- Pe value (permeability coefficient) [2]: 90.2 ± 23.1 × 10^−6 cm/s
